From ChEMBL document CHEMBL1149890, “Brianodins A-D, briarane-type diterpenoids from soft coral Pachyclavularia sp” (J Nat Prod, 2008)
In brackets after ≈: the same amount, converted by molar mass.

Tests used:
L1210 = assay: Cytotoxicity against mouse L1210 cells; format: functional, cell-based
KB = assay: Cytotoxicity against human KB cells; format: functional, cell-based

## CC(=O)O[C@@H]1C/C(C)=C\[C@@H]2OC(=O)[C@]3(C)O[C@]23[C@@H](OC(C)=O)[C@H]2[C@](C)(O)[C@H](OC(C)=O)C=C[C@]2(C)[C@@H]1O [BRIANODIN A]
L1210
  IC50: 1.8 µg/mL (≈ 3.44 µM)
KB
  IC50: 4.3 µg/mL (≈ 8.23 µM)

## CC(=O)O[C@@H]1[C@H](O)[C@@H](OC(C)=O)/C(C)=C\[C@@H]2OC(=O)[C@@](C)(O)[C@@]2(O)[C@@H](OC(C)=O)[C@H]2[C@](C)(O)[C@H](OC(C)=O)C=C[C@]12C [BRIANODIN B]
KB
  IC50: > 10 µg/mL

## CC(=O)O[C@@H]1[C@H](O)[C@@H](OC(C)=O)/C(C)=C\[C@@H]2OC(=O)[C@@](C)(O)[C@@]2(O)[C@@H](OC(C)=O)[C@H]2[C@](C)(O)[C@H](O)C=C[C@]12C [BRIANODIN C]
KB
  IC50: > 10 µg/mL

## CC(=O)O[C@@H]1C/C(C)=C\[C@@H]2OC(=O)[C@@](C)(O)[C@@]2(O)[C@@H](OC(C)=O)[C@H]2[C@](C)(O)[C@H](O)C=C[C@]2(C)[C@@H]1O [BRIANODIN D]
KB
  IC50: > 10 µg/mL
